Experimental data: patent publication US9441263B2, “Ribosomal targets for antibiotic drug discovery” (Cornell University, priority 2011, dated 2016)
Entries after “also recorded” stand apart in the source; their conditions may differ. Starred links: 1 amine or outer side, 2 acyl side, 3 side chain; linkers in the order of their positions; H or OH if unused. Positions of bridges follow the written chain, without caps; N, C: chain ends. Non-standard residues stand in square brackets, D forms with d. Residues, ends and D or L forms follow the SMILES beside them. *: point of attachment. X1 = NC1=N[C@@H]([C@H](N[*:1])C(=O)[*:2])C[C@H](O)N1; ΔAla(Z-3-ureido) = NC(=O)N/C=C(\N)C(=O)O; β3hOrn = NCCC[C@H](N)CC(=O)*; Dap = NC[C@H](N)C(=O)O

Legend:
[1] = tested on: wild-type ribosomes; test: Single-molecule FRET tRNA incorporation (aa-tRNA selection) assay, wild-type ribosomes; type: biochemical, E. coli
Method: (§1) Single-Molecule FRET tRNA Incorporation Assay.
The process of tRNA selection on the ribosome was monitored using single-molecule FRET by stropped-flow injection of a 10 nM solution of ternary complex (EF-Tu(GTP)·aa-tRNA) containing Phe-tRNA^Phe (Cy5-acp^3U47) to surface-immobilized ribosome complexes containing deacylated tRNA^fMet (Cy3-s^4U8) in the P site as previously described (Geggier 2010). Fluorescence and FRET traces were extracted from video and selected for analysis using automated analysis software implemented in MATLAB (MathWorks) using the segmental k-means algorithm (Qin, 1996). Complete accommodation of Phe-tRNA^Phe into the A site was marked by the first observation of a 400 ms dwell in a high ([…]) FRET state, structurally assigned to the “classical” pre-translocation complex configuration through previous investigations (Geggier 2010). Individual experiments, in which approximately 100 accommodation events were obtained, were performed in triplicate. The mean extent of accommodation and standard deviations are plotted as a function of time. Wild type and mutant ribosomes for these experiments were purified as previously described (Feldman 2010).

[2] = tested on: A1408G mutant ribosomes; test: Single-molecule FRET tRNA incorporation (aa-tRNA selection) assay, A1408G mutant ribosomes; type: biochemical, E. coli
Excerpt: (§2) Purification of A1408G Ribosomes.
(§3) Wild-type ribosomes and ribosomes bearing A1408G mutation were purified from a Δ7prrn E. coli MG1655 strain (RecA-) for single-molecule translocation and recycling experiments. The A1408G neomycin resistance mutation was introduced into a […] (KanR, SpecR) plasmid containing an rrnB operon (Komoda 2006) using Quickchange II site-directed mutagenesis (Stratagene). Wild-type and A1408G containing pRB102 plasmids (Komoda 2006) were then swapped into a Δ7prrn E. coli MG1655 (pKK3535, AmpR; ptRNA67, SpecR) strain. Tightly-coupled 70S ribosomes were purified from these strains in Tris-polymix buffer as previously described (Munro 2007).
as §1
The process of tRNA selection on the ribosome was monitored using single-molecule FRET by stropped-flow injection of a 10 nM solution of ternary complex (EF-Tu(GTP)·aa-tRNA) containing Phe-tRNA^Phe (Cy5-acp^3U47) to surface-immobilized ribosome complexes containing deacylated tRNA^fMet (Cy3-s^4U8) in the P site as previously described (Geggier 2010). Fluorescence and FRET traces were extracted from video and selected for analysis using automated analysis software implemented in MATLAB (MathWorks) using the segmental k-means algorithm (Qin, 1996). […]

[3] = tested on: wild-type pre-translocation ribosome complexes; test: Single-molecule translocation assay (EF-G catalyzed), wild-type ribosome complexes; type: biochemical, E. coli; conditions: wild-type ribosomes
Method: (§4) Single-Molecule Translocation Assay.
(§5) Fluorescence-based, single-molecule translocation assays were carried out as previously described (Munro 2010c) on either wild-type or A1408G mutant pre-translocation ribosome complexes. Experiments were performed in Tris-polymix buffer (pH 7.5, 5 mM Mg(OAc)2) and analyzed as previously described (Munro 2010c; Wang 2011), plotting the fraction of translocating molecules as a function of time.

[4] = tested on: A1408G mutant pre-translocation ribosome complexes; test: Single-molecule translocation assay (EF-G catalyzed), A1408G ribosome complexes; type: biochemical, E. coli
Excerpt: as §2, §3, §4, §5

[5] = tested on: wild-type 70S ribosome complexes; test: Single-molecule ribosome recycling assay (loss of Cy5-labeled L1 fluorescence), wild-type; type: biochemical, E. coli; conditions: wild-type ribosomes; neomycin 0.1-100 μM
Excerpt: (§6) As described in the examples, this invention provides single-molecule assays for ribosome recycling which comprises surface-immobilizing a ribosome labeled on the 50S subunit in the presence of tRNA, RRF and EF-G under translation conditions; and monitoring changes in the signal from the label, wherein a change in the signal indicates recycling or lack thereof. For example, this assay can be conducted in solution or using smFRET like imaging techniques (following fluorescence decay), with the label on the ribosome being a fluorophore.
(§7) Single-Molecule Fluorescence Experiments.
(§8) All single-molecule fluorescence experiments were performed at room temperature in an MES-Polymix buffer that resembled the crystallization condition (50 mM MES, pH 6.5, 5.0 mM MgCl2, 350 mM NH4Cl, 5.0 mM putrescine, 5.0 mM spermidine, 5 mM (3-mercaptoethanol and 0.5 mM EDTA). Oxygen scavenging and triplet-state quenching systems used were as previously described (Dave 2009). The smFRET data were acquired with Metamorph (Molecular Device), and analyzed in MATLAB (Mathwork) and QuB (www.qub.buffalo.edu) as previously described (Munro 2010a,b). Subunit release was monitored by directly exciting the Cy5 fluorophore within surface-immobilized ribosome complexes (Coherent) at 10 mW laser power. […] Changes in fluorescence intensity were analyzed and plotted in Origin (OriginLab).

[6] = tested on: A1408G mutant ribosomes; test: Single-molecule ribosome recycling assay (loss of Cy5-labeled L1 fluorescence), A1408G; type: biochemical, E. coli; conditions: neomycin 0.1-100 μM
Excerpt: as §6
Purification of A1408G Ribosomes. […]
as §7, §8

[7] = tested on: Cy3-S13 / Cy5-L1 (T202C) ribosome complexes; test: Single-molecule L1-S13 FRET assay (ribosome conformational states); type: biochemical, E. coli
Method: Generation of Site-Specifically Labeled 30S Subunits and 50S Subunits.
Ribosomal protein S13 was PCR-cloned from E. coli strain K12 genomic DNA into the pPROEX HTb vector with a TEV-cleavable His6-tag and a 12-residue peptide encoding the S6 epitope for the Sfp phosphopantetheinyl transferase reaction (Yin 2006), fused at the N terminus. Following transformation of this plasmid into an E. coli ΔS13 knockout strain (Cukras 2005), cells were cultured and ribosomes were harvested as previously described (Wang 2011). Pure 30S subunits were isolated via sucrose gradient centrifugation in a low magnesium buffer (20 mM HEPES pH 7.5, 50 mM KCl, 10 mM NH4Cl, 0.5 mM EDTA, 6 mM BME, 1 mM MgCl2). 30S subunits containing Sfp-tagged S13 were isolated from this population by cobalt affinity chromatography (Clontech). Subsequently, the Sfp tag was enzymatically labeled and the His6-tag was enzymatically removed in a buffer containing 20 mM HEPES, pH 7.5, 100 mM KCl, 10 mM MgCl, and 6 mM BME. 20 μM N-Sfp-S13 30S subunits, 5 μM TEV protease, 250 μM Cy3-CoA and 25 μM Sfp were incubated for 24 h at 18° C. Sfp enzyme, TEV protease and unbound Cy3-CoA were then removed by filtration over a 100K membrane (Millipore). Prior to 70S complex formation, ribosomes were buffer exchanged into Tris-polymix buffer (Munro 2010c). 50S subunits labeled with Cy5-L1 (T202C) were prepared and purified as previously described (Munro 2010b).
Preparation of L1-S13 FRET Ribosome Complexes with tRNA^fMet or tRNA^Phe in the P Site.
Cy3-S13 30S and Cy5-L1 50S subunits were heat activated at 42° C. for 10 min in Tris-polymix Mg^2+ buffer and ribosomes were then initiated with fMet-tRNA^fMet or NAc-Phe-tRNA^Phe as previously described (Munro 2010c).
Single-Molecule L1-S13 FRET Assay.
All single-molecule FRET experiments were performed at room temperature in Tris-Polymix with 5 mM Mg^2+ buffer as previously described (Wang 2011), where oxygen scavenging and triplet-state quenching systems were employed (Dave 2009). Following surface immobilization (Munro 2007), the ribosome-bound, P-site tRNA was deacylated by incubation with 2 mM puromycin for 10 min at room temperature. The smFRET data were acquired by directly exciting the Cy3 fluorophore at 532 nm (LaserQuantum) while Cy3 and Cy5 intensities were simultaneously recorded in Metamorph (Molecular Devices) with 40 ms integration time. The data were analyzed in MATLAB (MathWorks) and plotted in Origin (OriginLab) as previously described (Munro 2007).

[8] = tested on: wild-type pre-translocation ribosome complexes; conditions: Feldman 2010; cited from earlier work
[9] = deacylated tRNA^fMet in the P site, no A-site tRNA, EF-G with GDPNP

Compound: neomycin
- selection of cognate tRNA ([1]; 100 nM neomycin, cognate (UUC) codon): negligible effects
- rates of near-cognate aa-tRNA accommodation ([1]; 100 nM neomycin, near-cognate (UCU) codon): substantially increased
- selection of both cognate and near-cognate tRNA ([1]; 20 μM neomycin): significantly attenuated
- miscoding effects / incorporation of near-cognate tRNA ([2]; 100 nM neomycin): reduced; also recorded: almost entirely suppressed
- selection (incorporation) of cognate and near-cognate tRNA ([2]; 20 μM neomycin): both reduced; also recorded: Inhibition persisted
- concentration at which substrate translocation is blocked [3]: above 1 μM
- EF-G catalyzed translocation ([4]; A1408G mutant background, neomycin 0.01-100 μM, normalized to no drug): inhibits EF-G catalyzed translocation in a concentration dependent manner
- concentration at which substrate translocation is blocked ([4]; A1408G ribosomes): above 1 μM
- ribosome recycling mediated by RRF and EF-G [5]: inhibited ribosome recycling
- ribosome recycling catalyzed by RRF, EF-G and GTP [6]: inhibits the process of ribosome recycling catalyzed by RRF, EF-G and GTP in a concentration-dependent manner; also recorded: inhibited ribosome recycling
- ribosome conformation stabilized (L1-S13 FRET) ([7]; figure title, tRNA^fMet or tRNA^Phe in the P site): stabilizes an intermediate conformation of the ribosome
- FRET state stabilized (L1-S13) ([7]; higher neomycin concentrations (>1 μM), deacylated tRNA^fMet in the P site): stabilized a ribosome configuration exhibiting an intermediate FRET value
- FRET state favored (L1-S13) ([7]; low neomycin concentrations (<100 nM), deacylated tRNA^fMet in the P site): low-FRET state was favored
- neomycin concentration inhibiting translocation as potently as viomycin [8]: higher than 100 nM

Compound: EF-G: GTPase elongation factor-G
- FRET state stabilized (L1-S13) [7, 9]: high-FRET state was stabilized; also recorded: high-FRET, rotated state

Compound: RRF: ribosome recycling factor, purified from E. coli, C-terminal hexa-histidine tagged
- FRET state stabilized (L1-S13) [7, 9]: high-FRET state was stabilized; also recorded: high-FRET rotated state

Compound: NCCC[C@H](N)CC(=O)N[C@H]1CNC(=O)[C@H]([C@H]2C[C@H](O)NC(N)=N2)NC(=O)/C(=C/NC(N)=O)NC(=O)[C@H](CO)NC(=O)[C@H](CO)NC1=O [viomycin] (β3hOrn-[Dap]SS[ΔAla(Z-3-ureido)][X1]; lactam 1-C)
- FRET state stabilized (L1-S13) [7, 9]: high-FRET state was also favored; also recorded: rotated state
